Assay results from ChEMBL document CHEMBL1125556, “Fluoroquinolones: relationships between structural variations, mammalian cell cytotoxicity, and antimicrobial activity” (J Med Chem, 1992).
≈ marks a conversion by molar mass, not a printed value.

Key:
[1] = system: V79; experiment: Mammalian cell cytotoxicity test in chinese hamster V79 cells (clonogenic cytotoxicity); type: functional, cell-based
[2] = Antibacterial activity against five Gram-negative bacteria; type: functional
[3] = Cricetulus griseus, V79, read-out: IC50

Row | Compound | IC50 [1, 3] | MIC ([2]; read-out: MIC) | IC50 ([1]; v79) | MIC [2]
1 | CC1CN(c2c(F)cc3c(=O)c(C(=O)O)cn(C4CC4)c3c2F)CC(C)N1 (stereo not given) | 150 µg/mL (≈ 397 µM) | 0.05 µg/mL (≈ 0.132 µM) | – | –
2 | NCC1CCN(c2c(F)cc3c(=O)c(C(=O)O)cn(C4CC4)c3c2C(F)(F)F)C1 (stereo not given) | 38 µg/mL (≈ 91.9 µM) | 0.52 µg/mL (≈ 1.26 µM) | – | –
3 | NCC1CCN(c2c(F)cc3c(=O)c(C(=O)O)cn(C4CC4)c3c2F)C1 (stereo not given) | 11 µg/mL (≈ 30.3 µM) | 0.05 µg/mL (≈ 0.138 µM) | – | –
4 | CC1CN(c2c(F)cc3c(=O)c(C(=O)O)cn(C4CC4)c3c2C(F)(F)F)CCN1 (stereo not given) | 220 µg/mL (≈ 532 µM) | 0.6 µg/mL (≈ 1.45 µM) | – | –
5 | NC1CCN(c2c(F)cc3c(=O)c(C(=O)O)cn(C4CC4)c3c2[N+](=O)[O-])C1 (stereo not given) | 69 µg/mL (≈ 183 µM) | 0.46 µg/mL (≈ 1.22 µM) | – | –
6 | O=C(O)c1cn(C2CC2)c2c(F)c(N3CCNCC3)c(F)cc2c1=O | 47 µg/mL (≈ 135 µM) | 0.07 µg/mL (≈ 0.2 µM) | – | –
7 | CCNCC1CCN(c2cc3c(cc2F)c(=O)c(C(=O)O)cn3-c2ccc(F)cc2F)C1 (stereo in doubt; 17) | – | – | 190 µg/mL (≈ 427 µM) | 0.8 µg/mL (≈ 1.8 µM)
8 | O=C(O)c1cn(C2CC2)c2c(F)c(N3CCCC3)c(F)cc2c1=O | 120 µg/mL (≈ 359 µM) | 0.1 µg/mL (≈ 0.299 µM) | – | –
9 | COc1c(N2CCC(C)(CN)C2)c(F)cc2c(=O)c(C(=O)O)cn(C3CC3)c12 (stereo not given) | 38 µg/mL (≈ 97.6 µM) | 0.26 µg/mL (≈ 0.668 µM) | – | –
10 | CC1CN(c2cc3c(cc2F)c(=O)c(C(=O)O)cn3C2CC2)CC(C)N1 (stereo not given) | > 500 µg/mL | 0.08 µg/mL (≈ 0.223 µM) | – | –
11 | COc1c(N2CCCC2)c(F)cc2c(=O)c(C(=O)O)cn(C3CC3)c12 | 150 µg/mL (≈ 433 µM) | 0.3 µg/mL (≈ 0.866 µM) | – | –
12 | Cc1c(F)c(N2CCC(N)C2)cc2c1c(=O)c(C(=O)O)cn2C1CC1 (stereo not given) | 14 µg/mL (≈ 40.5 µM) | 0.09 µg/mL (≈ 0.261 µM) | – | –
13 | CCNCC1CCN(c2cc3c(cc2F)c(=O)c(C(=O)O)cn3C2CC2)C1 (stereo in doubt; 16) | – | – | – | 0.46 µg/mL (≈ 1.23 µM)
14 | COc1c(N2CCC(N)C2)c(F)c(N)c2c(=O)c(C(=O)O)cn(C3CC3)c12 (stereo not given) | 100 µg/mL (≈ 266 µM) | 0.11 µg/mL (≈ 0.292 µM) | – | –
15 | NC1CCN(c2c(F)c(Cl)c3c(=O)c(C(=O)O)cn(C4CC4)c3c2Cl)C1 (stereo not given) | > 500 µg/mL | 0.13 µg/mL (≈ 0.325 µM) | – | –
16 | NC1CCCN(c2nc3c(cc2F)c(=O)c(C(=O)O)cn3C2CC2)C1 (stereo not given) | 100 µg/mL (≈ 289 µM) | 0.4 µg/mL (≈ 1.15 µM) | – | –
17 | CNCC1(C)CCN(c2nc3c(cc2F)c(=O)c(C(=O)O)cn3C2CC2)C1 (stereo not given) | 58 µg/mL (≈ 155 µM) | 0.6 µg/mL (≈ 1.6 µM) | – | –
18 | NC1CCN(c2c(F)cc3c(=O)c(C(=O)O)cn(C4CC4)c3c2Cl)CC1 | 18 µg/mL (≈ 47.4 µM) | 0.08 µg/mL (≈ 0.211 µM) | – | –
19 | CC1CN(c2c(F)cc3c(=O)c(C(=O)O)cn(C4CC4)c3c2C(F)(F)F)CC(C)N1 (stereo not given) | > 500 µg/mL | 0.91 µg/mL (≈ 2.13 µM) | – | –
20 | NC1CCCN(c2cc3c(cc2F)c(=O)c(C(=O)O)cn3C2CC2)C1 (stereo not given) | > 500 µg/mL | 0.91 µg/mL (≈ 2.63 µM) | – | –
21 | NC1CCN(c2cc3c(cc2F)c(=O)c(C(=O)O)cn3C2CC2)CC1 | 230 µg/mL (≈ 666 µM) | 0.26 µg/mL (≈ 0.753 µM) | – | –
22 | NC1CCN(c2c(F)cc3c(=O)c(C(=O)O)cn(C4CC4)c3c2C(F)(F)F)CC1 | 20 µg/mL (≈ 48.4 µM) | 0.26 µg/mL (≈ 0.629 µM) | – | –
23 | CCNCC1CCN(c2c(F)cc3c(=O)c(C(=O)O)cn(C4CC4)c3c2OC)C1 (stereo in doubt; 68) | – | – | 22 µg/mL (≈ 54.5 µM) | 0.26 µg/mL (≈ 0.644 µM)
24 | Cc1c(F)c(N2CCC(N)C2)c(F)c2c1c(=O)c(C(=O)O)cn2C1CC1 (stereo not given) | 11 µg/mL (≈ 30.3 µM) | 0.02 µg/mL (≈ 0.055 µM) | – | –
25 | COc1c(N2CCC(CN)C2)c(F)cc2c(=O)c(C(=O)O)cn(C3CC3)c12 (stereo not given) | 10 µg/mL (≈ 26.6 µM) | 0.11 µg/mL (≈ 0.293 µM) | – | –
26 | CC1(n2cc(C(=O)O)c(=O)c3cc(F)c(N4CCC(N)C4)c(F)c32)CC1 (stereo not given) | 160 µg/mL (≈ 440 µM) | 0.3 µg/mL (≈ 0.826 µM) | – | –
27 | CCn1cc(C(=O)O)c(=O)c2cc(F)c(N3CCNCC3)cc21 [NORFLOXACIN] | > 500 µg/mL | 0.06 µg/mL (≈ 0.188 µM) | – | –
28 | NC1CCN(c2c(F)cc3c(=O)c(C(=O)O)cn(C4CC4)c3c2Cl)C1 (stereo in doubt; 46) [CLINAFLOXACIN] | – | – | 26 µg/mL (≈ 71.1 µM) | 0.03 µg/mL (≈ 0.082 µM)

Row | Compound | IC50 [1, 3] | MIC ([2]; read-out: MIC) | IC50 ([1]; v79) | MIC [2]
29 | NC1CCN(c2c(F)cc3c(=O)c(C(=O)O)cn(-c4ccc(F)cc4F)c3c2C(F)(F)F)C1 (stereo not given) | 99 µg/mL (≈ 210 µM) | 0.52 µg/mL (≈ 1.1 µM) | – | –
30 | NC1CCN(c2c(F)cc3c(=O)c(C(=O)O)cn(C4CC4)c3c2F)C1 (stereo in doubt; 24b) | – | – | 30 µg/mL (≈ 85.9 µM) | 0.04 µg/mL (≈ 0.115 µM)
31 | CCNCC1CCN(c2c(F)cc3c(=O)c(C(=O)O)cn(NC)c3c2F)C1 (stereo not given) | > 500 µg/mL | 0.26 µg/mL (≈ 0.684 µM) | – | –
32 | CCNCC1CCN(c2c(F)cc3c(=O)c(C(=O)O)cn(C4CC4)c3c2N)C1 (stereo not given) | 290 µg/mL (≈ 747 µM) | 0.91 µg/mL (≈ 2.34 µM) | – | –
33 | CCNCC1CCN(c2c(F)cc3c(=O)c(C(=O)O)cn(C4CC4)c3c2F)C1 (stereo in doubt; 26b) [PD-117558] | – | – | 11 µg/mL (≈ 28.1 µM) | –
34 | NC1CCN(c2c(F)c(O)c3c(=O)c(C(=O)O)cn(C4CC4)c3c2F)C1 (stereo not given) | 43 µg/mL (≈ 118 µM) | 0.03 µg/mL (≈ 0.0821 µM) | – | –
35 | CC1CN(c2c(F)cc3c(=O)c(C(=O)O)cn(-c4ccc(F)cc4F)c3c2Cl)CCN1 (stereo not given) | > 500 µg/mL | 2.07 µg/mL (≈ 4.58 µM) | – | –
36 | CCc1c(F)c(N2CCC(N)C2)cc2c1c(=O)c(C(=O)O)cn2C1CC1 (stereo not given) | 46 µg/mL (≈ 128 µM) | 1.81 µg/mL (≈ 5.04 µM) | – | –
37 | NC1CCN(c2nc3c(cc2F)c(=O)c(C(=O)O)cn3C2CC2)C1 (stereo not given) | 98 µg/mL (≈ 295 µM) | 0.03 µg/mL (≈ 0.0903 µM) | – | –
38 | O=C(O)c1cn(C2CC2)c2cc(N3CCCC3)c(F)cc2c1=O | 38 µg/mL (≈ 120 µM) | 0.2 µg/mL (≈ 0.632 µM) | – | –
39 | CCNCC1CCN(c2cc3c(cc2F)c(=O)c(C(=O)O)cn3C2CC2)C1 (stereo in doubt; 26a) | 160 µg/mL (≈ 428 µM) | 0.46 µg/mL (≈ 1.23 µM) | – | –
40 | Cc1c(F)c(N2CCC(N)C2)c(C(F)(F)F)c2c1c(=O)c(C(=O)O)cn2C1CC1 (stereo not given) | 290 µg/mL (≈ 702 µM) | 0.91 µg/mL (≈ 2.2 µM) | – | –
41 | COc1c(N2CCNCC2)c(F)cc2c(=O)c(C(=O)O)cn(C3CC3)c12 | 82 µg/mL (≈ 227 µM) | 0.07 µg/mL (≈ 0.194 µM) | – | –
42 | CCn1cc(C(=O)O)c(=O)c2cc(F)c(N3CCC(N)C3)c(F)c21 (stereo not given) | 300 µg/mL (≈ 889 µM) | 0.12 µg/mL (≈ 0.356 µM) | – | –
43 | O=C(O)c1cn(C2CC2)c2c(C(F)(F)F)c(N3CCCC3)c(F)cc2c1=O | 280 µg/mL (≈ 729 µM) | 12.5 µg/mL (≈ 32.5 µM) | – | –
44 | CC1(CN)CCN(c2c(F)cc3c(=O)c(C(=O)O)cn(C4CC4)c3c2C(F)(F)F)C1 (stereo not given) | 110 µg/mL (≈ 257 µM) | 1 µg/mL (≈ 2.34 µM) | – | –
45 | NC1CCN(c2cc3c(c(O)c2F)c(=O)c(C(=O)O)cn3C2CC2)C1 (stereo not given) | 72 µg/mL (≈ 207 µM) | 0.04 µg/mL (≈ 0.115 µM) | – | –
46 | CCn1cc(C(=O)O)c(=O)c2cc(F)c(N3CCN(C)CC3)cc21 [PEFLOXACIN] | – | 0.07 µg/mL (≈ 0.21 µM) | – | –
47 | CCNCC1CCN(c2c(F)c(Cl)c3c(=O)c(C(=O)O)cn(C4CC4)c3c2Cl)C1 (stereo not given) | 270 µg/mL (≈ 610 µM) | 0.6 µg/mL (≈ 1.36 µM) | – | –
48 | CC1(CN)CCN(c2nc3c(cc2F)c(=O)c(C(=O)O)cn3C2CC2)C1 (stereo not given) | 25 µg/mL (≈ 69.4 µM) | 0.35 µg/mL (≈ 0.971 µM) | – | –
49 | CCNCC1CCN(c2c(F)cc3c(=O)c(C(=O)O)cn(C4CC4)c3c2Cl)C1 (stereo in doubt; 69) | – | – | – | 0.14 µg/mL (≈ 0.343 µM)
50 | CCNCC1CCN(c2c(F)cc3c(=O)c(C(=O)O)cn(C4CC4)c3c2Cl)C1 (stereo in doubt; 37a) | < 11 µg/mL | – | – | –
51 | CCNCC1CCN(c2c(F)cc3c(=O)c(C(=O)O)cn(C4CC4)c3c2F)C1 (stereo in doubt; 7) [PD-117558] | – | – | – | 0.09 µg/mL (≈ 0.23 µM)
52 | NC1CCN(c2c(F)cc3c(=O)c(C(=O)O)cn(C4CC4)c3c2F)C1 (stereo in doubt; 43) | – | – | 30 µg/mL (≈ 85.9 µM) | –
53 | NC1CCN(c2c(F)cc3c(=O)c(C(=O)O)cn(C4CC4)c3c2Cl)C1 (stereo in doubt; 33a) [CLINAFLOXACIN] | – | – | 26 µg/mL (≈ 71.1 µM) | –
54 | COc1c(N2CCC(N)C2)c(F)cc2c(=O)c(C(=O)O)cn(C3CC3)c12 (stereo in doubt; 35a) | 45 µg/mL (≈ 125 µM) | – | – | –
55 | CCNCC1CCN(c2cc3c(cc2F)c(=O)c(C(=O)O)cn3C2CC2)C1 (stereo in doubt; 66) | – | – | 160 µg/mL (≈ 428 µM) | –
